Active and inactive are the calls of the source. No cut-off for these calls is given here.

For data set [1], the target named is T1, beta-catenin-B-cell lymphoma 9 protein complex (Homo sapiens, UniProt P35222).
T1 sequence (P35222 whole entry): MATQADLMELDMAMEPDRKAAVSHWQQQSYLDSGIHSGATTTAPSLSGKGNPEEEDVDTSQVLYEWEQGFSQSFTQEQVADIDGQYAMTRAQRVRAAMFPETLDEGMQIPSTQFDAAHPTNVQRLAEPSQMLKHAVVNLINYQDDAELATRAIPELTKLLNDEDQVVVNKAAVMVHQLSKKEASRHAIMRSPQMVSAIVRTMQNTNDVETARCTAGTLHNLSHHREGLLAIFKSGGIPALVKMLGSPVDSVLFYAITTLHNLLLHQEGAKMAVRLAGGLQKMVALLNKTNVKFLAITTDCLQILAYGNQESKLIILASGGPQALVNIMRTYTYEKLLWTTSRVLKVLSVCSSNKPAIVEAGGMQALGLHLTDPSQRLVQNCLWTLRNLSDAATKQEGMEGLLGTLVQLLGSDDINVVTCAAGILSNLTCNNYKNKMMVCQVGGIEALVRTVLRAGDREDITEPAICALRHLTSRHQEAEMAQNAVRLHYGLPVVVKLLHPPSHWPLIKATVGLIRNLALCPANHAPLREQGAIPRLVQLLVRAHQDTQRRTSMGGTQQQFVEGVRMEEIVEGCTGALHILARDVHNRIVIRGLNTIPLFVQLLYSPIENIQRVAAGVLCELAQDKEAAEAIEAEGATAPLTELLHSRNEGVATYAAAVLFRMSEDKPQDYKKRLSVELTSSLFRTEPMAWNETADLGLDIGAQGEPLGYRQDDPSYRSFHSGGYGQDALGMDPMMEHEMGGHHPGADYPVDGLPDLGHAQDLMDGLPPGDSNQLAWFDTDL
T1 sequence (O00512 whole entry): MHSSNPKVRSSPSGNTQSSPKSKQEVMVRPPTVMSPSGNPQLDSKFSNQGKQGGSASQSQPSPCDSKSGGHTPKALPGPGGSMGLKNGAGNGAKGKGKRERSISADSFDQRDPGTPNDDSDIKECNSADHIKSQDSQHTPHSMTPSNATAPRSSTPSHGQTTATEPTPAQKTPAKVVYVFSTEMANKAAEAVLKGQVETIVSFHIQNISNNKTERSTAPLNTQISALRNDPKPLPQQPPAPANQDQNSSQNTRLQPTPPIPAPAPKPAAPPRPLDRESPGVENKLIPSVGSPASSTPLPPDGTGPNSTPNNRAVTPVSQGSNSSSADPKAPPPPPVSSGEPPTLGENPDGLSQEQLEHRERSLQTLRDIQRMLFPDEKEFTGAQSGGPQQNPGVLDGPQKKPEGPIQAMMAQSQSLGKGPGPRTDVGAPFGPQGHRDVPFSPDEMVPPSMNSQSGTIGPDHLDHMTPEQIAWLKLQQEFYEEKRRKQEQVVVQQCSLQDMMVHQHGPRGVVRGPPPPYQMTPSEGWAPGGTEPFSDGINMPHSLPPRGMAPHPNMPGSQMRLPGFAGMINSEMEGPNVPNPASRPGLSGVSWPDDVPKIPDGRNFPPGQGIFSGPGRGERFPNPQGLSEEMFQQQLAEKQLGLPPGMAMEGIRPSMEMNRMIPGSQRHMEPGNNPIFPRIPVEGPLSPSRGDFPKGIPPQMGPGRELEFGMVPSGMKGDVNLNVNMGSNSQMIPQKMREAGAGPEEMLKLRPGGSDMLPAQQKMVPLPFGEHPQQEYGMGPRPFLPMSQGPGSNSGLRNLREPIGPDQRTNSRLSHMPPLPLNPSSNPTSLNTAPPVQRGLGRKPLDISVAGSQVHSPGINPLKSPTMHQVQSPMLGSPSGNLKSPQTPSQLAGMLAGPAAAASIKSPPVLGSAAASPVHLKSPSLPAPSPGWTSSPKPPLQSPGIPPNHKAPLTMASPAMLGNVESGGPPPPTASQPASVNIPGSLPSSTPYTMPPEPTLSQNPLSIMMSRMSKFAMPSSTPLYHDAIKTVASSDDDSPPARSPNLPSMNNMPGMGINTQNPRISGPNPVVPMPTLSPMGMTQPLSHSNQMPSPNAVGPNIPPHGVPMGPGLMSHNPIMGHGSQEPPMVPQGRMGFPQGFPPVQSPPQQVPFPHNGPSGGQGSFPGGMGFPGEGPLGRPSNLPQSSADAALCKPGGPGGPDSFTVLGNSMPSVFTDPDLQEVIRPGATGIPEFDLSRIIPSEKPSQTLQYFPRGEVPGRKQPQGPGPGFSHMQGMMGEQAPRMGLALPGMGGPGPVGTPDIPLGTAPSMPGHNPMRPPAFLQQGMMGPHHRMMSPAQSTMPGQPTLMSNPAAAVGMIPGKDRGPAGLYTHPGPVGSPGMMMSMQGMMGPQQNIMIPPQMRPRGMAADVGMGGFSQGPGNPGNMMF
The experiment in a line: Inhibition of beta-catenin/BCL9 protein-protein interaction in Wnt-dependent human HCT-116 cells assessed as reduction in Axin2 expression level by qRT-PCR assay. The format is cell-based.

The subject of the next data set is HCT-116. In words: Induction of apoptosis in Wnt-dependent human HCT-116 cells assessed as necrotic cells at 10 uM incubated for 24 hrs by Annexin V-Alexa Fluor 647/PI staining based flow cytomtery (Rvb=1.47%). Format: functional.
In data set [2] the test system is CT26. In words: Synergistic antitumor activity in mouse CT26 cells xenografted in BALB/c mouse assessed as increase in IFNgamma-positive CD8+ T cell infiltration into tumor at 30 mg/kg, ip QD in presence of anti-PD-1 antibody cotreatment at 10 mg/kg,ip BIW by flow cytometry. The format is functional, organism-based. A general note: A flow cytometer gives signals particle by particle.

For data set [3], the system named is CT26. The experiment in a line: Synergistic antitumor activity in mouse CT26 cells xenografted in BALB/c mouse assessed as increase in granzyme B-positive CD8+ T cell infiltration into tumor at 30 mg/kg, ip QD in presence of anti-PD-1 antibody cotreatment at 10 mg/kg,ip BIW by flow cytometry. The format is functional, organism-based.
The test system of data set [4] is CT26. The experiment in a line: Synergistic antitumor activity in mouse CT26 cells xenografted in BALB/c mouse assessed as decrease in Foxp3 expression in Treg tumor cells at 30 mg/kg, ip QD in presence of anti-PD-1 antibody cotreatment at 10 mg/kg,ip BIW by qRT-PCR analysis. The format is functional, organism-based.
The test system of data set [5] is CT26. In words: Antitumor activity in mouse CT26 cells xenografted in BALB/c mouse assessed as increase in CD8+ T cell infiltration into tumor at 30 mg/kg, ip QD by flow cytometry. The format is functional, organism-based.
Data set [6] has as its system CT26. In words: Antitumor activity in mouse CT26 cells xenografted in BALB/c mouse assessed as increase in Cd8 mRNA expression level in tumor at 30 mg/kg, ip QD by qRT-PCR analysis. Format: functional, organism-based. (Quantitative PCR measures a nucleic acid by following its amplification.)
A short description of data set [7]: Toxicity in BALB/c mouse xenografted with mouse CT26 cells assessed as adverse effect at 30 mg/kg, ip QD and measured upto 9 days in presence of anti-PD-1 antibody cotreatment at 10 mg/kg,ip BIW. The format is organism-based. As to conditions: in vivo, 216 h, time < 9 day.
Data set [8] concerns CT26. As to conditions: Mus musculus, BALB/c, dose 30.0 mg/kg, route ip.
Description: In vivo inhibition of Wnt signaling pathway in mouse CT26 cells implanted in BALB/c mouse assessed as reduction in Axin2 mRNA expression level in tumor at 30 mg/kg, ip QD by qRT-PCR analysis

The IC50 is the concentration needed to halve the response being measured. On to `O=C1[C@H](Cc2ccc(O)cc2)N2C(=O)CCN(C(=O)NCc3ccccc3)[C@H]2CN1Cc1cccc2ccccc12`, for which the IC50 in data set [1] came out at 2690 nM.

On to `CC(C)c1ccc(-c2cccc(S(=O)(=O)N3CCCC(c4cccc(OC(C)(C)C(=O)NS(=O)(=O)c5ccc(C(F)(F)F)cc5)c4)C3)c2)cc1` (centres undefined), for which the figures for the Activity (in the data set on HCT-116; in data set [7]) were 2% and “Non-Toxic”, respectively. Besides, the outcome with CT26 [2], in the data set with CT26 [3], in the data set with CT26 [4], in the data set on CT26 [5] and in the data set on CT26 [6] was Active. The inhibition entry in the data set on CT26 [8] was “Active”.

Source of the values: ChEMBL document CHEMBL5316313, “Discovery of Novel 3-Phenylpiperidine Derivatives Targeting the β-Catenin/B-Cell Lymphoma 9 Interaction as a Single Agent and in Combination with the Anti-PD-1 Antibody for the Treatment of Colorectal Cancer” (J Med Chem, 2023).
